In brackets after ≈: the same amount, converted by molar mass.
Tests used:
Assay in all cases: In vitro antifungal activity, microbroth dilution MIC
Format in all cases: cell-based
[1] = test system: Candida tropicalis A. 13803; settings: 4 to 48 hours; for Minimal inhibitory concentration (MIC): C. tropicalis A. 13803, RPMI-1640, 35° C.; for Minimal inhibitory concentration(MIC), C. tropicalis A. 13803: RPMI-1640, 35° C., no growth observed
How it was run: (§1)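 Broth microdilution adapted from NCCLS M27, in RPMI-1640 with 0.165 M MOPS, pH 7.0. Yeast or mould inoculum at 2×10^3 CFU/ml was mixed 1:1 with DMSO-derived compound solutions (200 to 0.10 μg/ml before mixing) and incubated at 35 °C for 4 to 48 h. MIC was the concentration showing no growth.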

[2] = test system: Aspergillus furnigatus B. 19119; settings: 4 to 48 hours; for Minimal inhibitory concentration (MIC): A furnigatus B. 19119, RPMI-1640, 35° C.; for Minimal inhibitory concentration(MIC), A furnigatus B. 19119: RPMI-1640, 35° C., no growth observed
How it was run: as §1

Candida albicans C1-2 = settings: 4 to 48 hours; for Minimal inhibitory concentration (MIC): C. albicans C1-2, RPMI-1640, 35° C.; for Minimal inhibitory concentration(MIC), C. albicans C1-2: RPMI-1640, 35° C., no growth observed
How it was run: as §1

[3] = test system: Cryptococcus neoformans A. 34144; settings: 4 to 48 hours; for Minimal inhibitory concentration (MIC): Cry. neoformans A. 34144, RPMI-1640, 35° C.; for Minimal inhibitory concentration(MIC), Cry. neoformans A. 34144: RPMI-1640, 35° C., no growth observed
How it was run: as §1

[4] = test system: Trichophyton mentagrophytes B. 32663; settings: 4 to 48 hours; for Minimal inhibitory concentration (MIC): T. mentagrophytes B. 32663, RPMI-1640, 35° C.; for Minimal inhibitory concentration(MIC), T. mentagrophytes B. 32663: RPMI-1640, 35° C., no growth observed
How it was run: as §1

[5] = test system: Candida parapsitosis A. 7330; settings: 4 to 48 hours; for Minimal inhibitory concentration (MIC): C. parapsitosis A. 7330, RPMI-1640, 35° C.; for Minimal inhibitory concentration(MIC), C. parapsitosis A. 7330: RPMI-1640, 35° C., no growth observed
How it was run: as §1

[6] = test system: Candida albicans A. 10231; settings: 4 to 48 hours; for Minimal inhibitory concentration (MIC): C. albicans A. 10231, RPMI-1640, 35° C.; for Minimal inhibitory concentration(MIC), C. albicans A. 10231: RPMI-1640, 35° C., no growth observed
How it was run: as §1

[7] = test system: Candida albicans IFO. 1385; settings: 4 to 48 hours; for Minimal inhibitory concentration (MIC): C. albicans IFO. 1385, RPMI-1640, 35° C.; for Minimal inhibitory concentration(MIC), C. albicans IFO. 1385: RPMI-1640, 35° C., no growth observed
How it was run: as §1

[8] = test system: Cryptococcus neoformans IFM. 40092; settings: 4 to 48 hours; for Minimal inhibitory concentration (MIC): Cry. neoformans IFM. 40092, RPMI-1640, 35° C.; for Minimal inhibitory concentration(MIC), Cry. neoformans IFM. 40092: RPMI-1640, 35° C., no growth observed
How it was run: as §1

[9] = test system: Aspergillus niger A. 16404; settings: 4 to 48 hours; for Minimal inhibitory concentration (MIC): A. niger A. 16404, RPMI-1640, 35° C.; for Minimal inhibitory concentration(MIC), A. niger A. 16404: RPMI-1640, 35° C., no growth observed
How it was run: as §1

Candida krusei K. 11655 = settings: 4 to 48 hours; for Minimal inhibitory concentration (MIC): C. krusei K. 11655, RPMI-1640, 35° C.; for Minimal inhibitory concentration(MIC), C. krusei K. 11655: RPMI-1640, 35° C., no growth observed
How it was run: as §1

[10] = test system: Trichophyton mentagrophytes A. 9129; settings: 4 to 48 hours; for Minimal inhibitory concentration (MIC): T. mentagrophytes A. 9129, RPMI-1640, 35° C.; for Minimal inhibitory concentration(MIC), T. mentagrophytes A. 9129: RPMI-1640, 35° C., no growth observed
How it was run: as §1

[11] = test system: Torulopsis glabrata B. 16205; settings: 4 to 48 hours; for Minimal inhibitory concentration (MIC): T. glabrata B. 16205, RPMI-1640, 35° C.; for Minimal inhibitory concentration(MIC), T. glabrata B. 16205: RPMI-1640, 35° C., no growth observed
How it was run: as §1

[12] = test system: Candida pseudotropicalis K. 11658; settings: 4 to 48 hours; for Minimal inhibitory concentration (MIC): C. pseudotropicalis K. 11658, RPMI-1640, 35° C.; for Minimal inhibitory concentration(MIC), C. pseudotropicalis K. 11658: RPMI-1640, 35° C., no growth observed
How it was run: as §1

[13] = test system: Cryptococcus neoformans B. 42419; settings: 4 to 48 hours; for Minimal inhibitory concentration (MIC): Cry. neoformans B. 42419, RPMI-1640, 35° C.; for Minimal inhibitory concentration(MIC), Cry. neoformans B. 42419: RPMI-1640, 35° C., no growth observed
How it was run: as §1

SMILES	Minimal inhibitory concentration (MIC) [1] [µg/mL]	Minimal inhibitory concentration (MIC) [2] [µg/mL]	Minimal inhibitory concentration (MIC) (Candida albicans C1-2) [µg/mL]	Minimal inhibitory concentration (MIC) [3] [µg/mL]	Minimal inhibitory concentration (MIC) [4]	Minimal inhibitory concentration (MIC) [5] [µg/mL]	Minimal inhibitory concentration (MIC) [6] [µg/mL]	Minimal inhibitory concentration (MIC) [7] [µg/mL]	Minimal inhibitory concentration (MIC) [8]	Minimal inhibitory concentration (MIC) [9] [µg/mL]	Minimal inhibitory concentration (MIC) (Candida krusei K. 11655) [µg/mL]	Minimal inhibitory concentration (MIC) [10] [µg/mL]	Minimal inhibitory concentration (MIC) [11] [µg/mL]	Minimal inhibitory concentration (MIC) [12] [µg/mL]	Minimal inhibitory concentration (MIC) [13] [µg/mL]	Minimal inhibitory concentration(MIC), C. tropicalis A. 13803 [1] [µg/mL]	Minimal inhibitory concentration(MIC), A furnigatus B. 19119 [2] [µg/mL]	Minimal inhibitory concentration(MIC), C. albicans C1-2 (Candida albicans C1-2) [µg/mL]	Minimal inhibitory concentration(MIC), Cry. neoformans A. 34144 [3] [µg/mL]	Minimal inhibitory concentration(MIC), T. mentagrophytes B. 32663 [4] [µg/mL]	other results
CCc1ccc(C(=C(F)OCC2COC(Cn3ccnc3)(c3ccc(Cl)cc3Cl)O2)C(F)(F)F)cc1 (stereo not drawn) [Ex. 22]	25.0 (≈ 45.8 µM)	50.0 (≈ 91.7 µM)	12.5 (≈ 22.9 µM)	1.56 (≈ 2.86 µM)	12.5 µg/mL (≈ 22.9 µM)	>100	6.25 (≈ 11.5 µM)	0.78 (≈ 1.43 µM)	0.78 µg/mL (≈ 1.43 µM)	100 (≈ 183 µM)	100 (≈ 183 µM)	25.0 (≈ 45.8 µM)	25.0 (≈ 45.8 µM)	100 (≈ 183 µM)	1.56 (≈ 2.86 µM)						
Cc1cc(C=C(F)OCC2COC(Cn3ccnc3)(c3ccc(F)cc3F)O2)ccc1Cl (mixture of isomers) [Ex. 50]	25.0	6.25	12.5	1.56	0.78 µg/mL	12.5	12.5	0.39	0.20 µg/mL	25.0	25.0	3.13	6.25	12.5	1.56						
FC(Oc1ccc(OCC2COC(Cn3ccnc3)(c3ccc(Cl)cc3Cl)O2)cc1)=C(c1cccc(F)c1)C(F)(F)F (mixture of isomers) [Ex. 103]																>100	100	50.0	3.13	6.25	Minimal inhibitory concentration(MIC), C. parapsitosis A. 7330 [5]: >100 µg/mL; Minimal inhibitory concentration(MIC), C. albicans A. 10231 [6]: 50.0 µg/mL; Minimal inhibitory concentration(MIC), C. albicans IFO. 1385 [7]: 3.13 µg/mL; Minimal inhibitory concentration(MIC), Cry. neoformans IFM. 40092 [8]: 0.78 µg/mL; Minimal inhibitory concentration(MIC), A. niger A. 16404 [9]: >100 µg/mL; Minimal inhibitory concentration(MIC), C. krusei K. 11655 (Candida krusei K. 11655): >100 µg/mL; Minimal inhibitory concentration(MIC), T. mentagrophytes A. 9129 [10]: 12.5 µg/mL; Minimal inhibitory concentration(MIC), T. glabrata B. 16205 [11]: 50.0 µg/mL; Minimal inhibitory concentration(MIC), C. pseudotropicalis K. 11658 [12]: >100 µg/mL; Minimal inhibitory concentration(MIC), Cry. neoformans B. 42419 [13]: 3.13 µg/mL
FC(Oc1ccc(OCC2COC(Cn3ccnc3)(c3ccc(F)cc3F)O2)cc1)=C(c1cc(Cl)cc(Cl)c1)C(F)(F)F (mixture of isomers) [Ex. 116]																>100	>100	100	1.56	3.13	Minimal inhibitory concentration(MIC), C. parapsitosis A. 7330 [5]: 100 µg/mL; Minimal inhibitory concentration(MIC), C. albicans A. 10231 [6]: 100 µg/mL; Minimal inhibitory concentration(MIC), C. albicans IFO. 1385 [7]: 3.13 µg/mL; Minimal inhibitory concentration(MIC), Cry. neoformans IFM. 40092 [8]: 0.20 µg/mL; Minimal inhibitory concentration(MIC), A. niger A. 16404 [9]: >100 µg/mL; Minimal inhibitory concentration(MIC), C. krusei K. 11655 (Candida krusei K. 11655): 100 µg/mL; Minimal inhibitory concentration(MIC), T. mentagrophytes A. 9129 [10]: 6.25 µg/mL; Minimal inhibitory concentration(MIC), T. glabrata B. 16205 [11]: 50.0 µg/mL; Minimal inhibitory concentration(MIC), C. pseudotropicalis K. 11658 [12]: 25.0 µg/mL; Minimal inhibitory concentration(MIC), Cry. neoformans B. 42419 [13]: 1.56 µg/mL
FC(=Cc1cccc(Cl)c1)OCC1COC(Cn2ccnc2)(c2ccc(Cl)cc2Cl)O1 (stereo not drawn) [Ex. 13]	50.0 (≈ 103 µM)	1.56 (≈ 3.22 µM)	3.13 (≈ 6.47 µM)	0.39 (≈ 0.806 µM)	≦0.10 μg/ml	50.0 (≈ 103 µM)	6.25 (≈ 12.9 µM)	0.39 (≈ 0.806 µM)	≦0.10 μg/ml	3.13 (≈ 6.47 µM)	25.0 (≈ 51.7 µM)	0.78 (≈ 1.61 µM)	6.25 (≈ 12.9 µM)	1.56 (≈ 3.22 µM)	0.39 (≈ 0.806 µM)						

Source: patent US6376497B1, “Antifungal azole derivatives having a fluorinated vinyl group and process for preparing same” (Korea Research Institute of Chemical Technology, priority 1999, dated 2002)
